One compound from patent publication US4745102A, “Novel treatment method” (Roussel Uclaf, priority 1979, dated 1988) can be followed below.

One test has as its system ovarian steroidogenosis. Description: Inhibition of ovarian steroidogenesis in women, intranasal, 6 consecutive cycles. The format is in vivo. The conditions noted are these: for reduction of seric levels of progesterone as compared to the controls: typical case (sheet 3). The method, then:
The inhibitory activity of [D Ser (tbu)^6 des Gly NH2^10 ] LH-RH ethylamide on ovarian steroidogenosis in women was determined on 6 women aged 26 to 35 years with normal and regular menstrual cycles and without prior endocrinal or gynecological problems. The study was conducted for 6 consecutive cycles consisting of 2 pretreatment cycles, 2 treatment cycles and 2 post-treatment cycles. Two drops of a solution containing 500 μg of [D Ser (tbu)^6 des Gly NH2^10 ] LH-RH ethylamide were deposited on each nostril at 8 A.M. and 5P.M. of a day between the 4th and 9th day after the peak of LH-day 0. Daily blood samples were taken between 4 and 6 P.M. to measure seric levels of LH, FSH, progesterone and estradiol which were determined by radioimmuno-logictests with double antibodies. The antibodies to measure LH and FSH were furnished by the National Pituitory Agency of N.I.H. of Bethesda, Md.
Estradiol and progesterone were measued with highly specific antibodies developed against 7-(0-carboxymethyl)oxime of estradiol and 12-(0-carboxymethyl)-oxime of progesterone, respectively [3H] 17β-estradiol and ^125 I-progesterone-12-[0-carboxymethyl)-oxime]used as tracers. The serum was extracted with benzene and the steroids were separated with a LH-20 column before the determination. The radioimmunological results were exploited by the program derived from model II of Rodbard and Lewald as in Example 1 and the statistical significance was measured by the multiple level test of Ducan-Kramer of Example 1. The results are shown in the graphs of sheets 3 to 5 of the FIG.

Test [1] has as its system testicular steriodogenosis. Description: Inhibition of testicular steroidogenesis in a patient with prostate cancer, intranasal twice a day. The format is in vivo, human. The conditions noted are these: intranasal 500 μg twice a day. The source says:
The inhibitory activity of [D Ser (tbu)^6 des Gly NH2^10 ] […] The results are reported in the graphs of sheet 2 of the Figures.

The subject of test [2] is testicular steroidogensis. Description: Inhibition of testicular steroidogenesis in healthy men, single intranasal dose; seric LH, FSH and steroids by radioimmunoassay. The class given is in vivo. The protocol: The inhibitory activity of [D Ser (tbu)^6 of des Gly NH2^10 ] LH-RH ethylamide (described in German application Ser. No. 2,438,350) against testicular steroidogensis in men in good health was determined on men in good health aged 30 to 40 years. The said product was administered intranasally at a dose of 500 μg in a few drops of distilled water at 8 A.M. on the third day of the test. For 2 days prior to the treatment and for 6 days after the treatment, samples of blood were taken daily at 8 A.M., 3 P.M. and 10 P.M. On the day of administration of the LH-RH agonist, blood samples were taken at 11 A.M. and 6 P.M.
The seric concentrations of LH and FSH were measured by radioimmuno-logic dosages with double antibodies and the antibodies for measuring LH and FSH were furnished by the National Pituitary Agency of N.I.H. in Bethesda, Md. The seric concentrations of steroids was measured by radioimmuno-logic dosages in which one ml of serum was extracted with ether and the steroids were separated on a LH-20 column before measuring with radioimmuno-logic dosages. The radioimmuno-logic dosage results were determined by a program derived from model II of Rodbard et al [Second Karolinska Symposium on Research Methods in Reproductive Endrocrinology, Diczfalusky Editor, Copenhague (1970), p. 79-103]. The statistical significance was determined by the "multiple level test" of Ducan-Kramer [Kramer, Biometrics, Vol 12 (1956), p. 307]. The results are shown in the graphs on sheet 1 of the FIGS. filed herewith.

“Also recorded” adds a separate entry of the source.

With `CCNC(=O)[C@@H]1CCCN1C(=O)[C@H](CCCNC(=N)N)NC(=O)[C@H](CC(C)C)NC(=O)[C@@H](COC(C)(C)C)NC(=O)[C@H](Cc1ccc(O)cc1)NC(=O)[C@H](CO)NC(=O)[C@H](Cc1c[nH]c2ccccc12)NC(=O)[C@H](Cc1c[nH]cn1)NC(=O)[C@@H]1CCC(=O)N1` [[D Ser (tbu)^6 des Gly NH2^10] LH-RH ethylamide], the “level of progesterone, cycles of pretreatment as base of 100%” value with ovarian steroidogenosis (12 cycles of post-treatment) is recorded as 99%; in the test on ovarian steroidogenosis (12 cycles of treatment) it was 46%. Besides, the “level of progesterone reduced as compared to the controls” value in the test on ovarian steroidogenosis (all results (sheet 5), cycles of treatment) came out at 46%. Also, the “level of seric progesterone in the 2 cycles of post-treatment” value with ovarian steroidogenosis (sheet 4, post-treatment cycles) is reported as “return to normal”. Also, in the test with ovarian steroidogenosis (sheet 4, treatment cycles), the “level of seric progesterone in the 2 cycles of treatment” value is “accelerated diminution”. In addition, the “reduction of seric levels of progesterone as compared to the controls” value was 13% in the test with ovarian steroidogenosis (first cycle of treatment, intranasal 500 μg at 8 A.M. and 5 P.M.); 34% in the test on ovarian steroidogenosis (second cycle of treatment). In addition, the “level of androgenic steroids” value in test [1] was “diminution”. Further, in test [2] (human, single intranasal dose 500 μg), the “duration of drop of seric levels of testicular steroids (testosterone and its precursors)” value is recorded as 3 days. For the same compound, the “level of testosterone/steroids on the fourth day after administration” value in test [2] (human, single intranasal dose 500 μg, fourth day (until 6th day)) is on record as “returned to normal; also recorded: return to normal levels”. In test [2] (men, intranasal 500 μg), the “overall effect on testicular steroidogenesis” value is “inhibition of testicular steroidogenesis”.
